Measurements from patent US12581252B2, “Substituted pyrrolo[3,4-b]pyridines as PI3K-α inhibitors” (Relay Therapeutics, Inc., priority 2020, dated 2026).

Molecular target: H1047R PIK3CA enzyme (Homo sapiens, UniProt P42336, H1047R)
Test: ADP-Glo Biochemical PIK3CA Kinase Assay

H1047R PIK3CA enzyme, sequence (P42336 whole entry H1047R): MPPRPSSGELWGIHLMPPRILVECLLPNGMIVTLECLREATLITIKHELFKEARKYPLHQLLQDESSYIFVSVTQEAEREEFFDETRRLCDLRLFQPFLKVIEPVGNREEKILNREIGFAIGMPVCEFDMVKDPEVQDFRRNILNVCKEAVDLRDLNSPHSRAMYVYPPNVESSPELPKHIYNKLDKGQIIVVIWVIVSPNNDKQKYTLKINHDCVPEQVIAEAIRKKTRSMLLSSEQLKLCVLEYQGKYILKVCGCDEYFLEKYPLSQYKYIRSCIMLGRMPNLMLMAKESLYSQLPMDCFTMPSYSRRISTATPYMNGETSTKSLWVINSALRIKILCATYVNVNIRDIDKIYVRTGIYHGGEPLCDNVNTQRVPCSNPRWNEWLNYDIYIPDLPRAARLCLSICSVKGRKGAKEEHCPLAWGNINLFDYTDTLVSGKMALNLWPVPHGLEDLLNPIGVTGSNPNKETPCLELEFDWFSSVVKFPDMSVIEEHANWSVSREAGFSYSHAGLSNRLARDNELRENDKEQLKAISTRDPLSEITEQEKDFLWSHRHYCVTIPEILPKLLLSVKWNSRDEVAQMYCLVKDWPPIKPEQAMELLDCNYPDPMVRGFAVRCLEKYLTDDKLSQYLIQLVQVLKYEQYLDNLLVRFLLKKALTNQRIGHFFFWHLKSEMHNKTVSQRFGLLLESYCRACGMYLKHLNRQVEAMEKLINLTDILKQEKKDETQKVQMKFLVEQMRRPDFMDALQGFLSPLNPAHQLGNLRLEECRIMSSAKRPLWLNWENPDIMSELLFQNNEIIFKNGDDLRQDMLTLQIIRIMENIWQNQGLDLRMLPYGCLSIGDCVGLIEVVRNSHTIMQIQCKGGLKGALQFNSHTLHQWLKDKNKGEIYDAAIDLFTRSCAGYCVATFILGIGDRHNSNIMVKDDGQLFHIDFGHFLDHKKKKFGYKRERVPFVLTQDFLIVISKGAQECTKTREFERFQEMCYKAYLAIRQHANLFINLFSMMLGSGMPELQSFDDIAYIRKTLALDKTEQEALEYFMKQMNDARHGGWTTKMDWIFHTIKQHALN
H1047R PIK3CA enzyme, sequence (P27986 whole entry partner): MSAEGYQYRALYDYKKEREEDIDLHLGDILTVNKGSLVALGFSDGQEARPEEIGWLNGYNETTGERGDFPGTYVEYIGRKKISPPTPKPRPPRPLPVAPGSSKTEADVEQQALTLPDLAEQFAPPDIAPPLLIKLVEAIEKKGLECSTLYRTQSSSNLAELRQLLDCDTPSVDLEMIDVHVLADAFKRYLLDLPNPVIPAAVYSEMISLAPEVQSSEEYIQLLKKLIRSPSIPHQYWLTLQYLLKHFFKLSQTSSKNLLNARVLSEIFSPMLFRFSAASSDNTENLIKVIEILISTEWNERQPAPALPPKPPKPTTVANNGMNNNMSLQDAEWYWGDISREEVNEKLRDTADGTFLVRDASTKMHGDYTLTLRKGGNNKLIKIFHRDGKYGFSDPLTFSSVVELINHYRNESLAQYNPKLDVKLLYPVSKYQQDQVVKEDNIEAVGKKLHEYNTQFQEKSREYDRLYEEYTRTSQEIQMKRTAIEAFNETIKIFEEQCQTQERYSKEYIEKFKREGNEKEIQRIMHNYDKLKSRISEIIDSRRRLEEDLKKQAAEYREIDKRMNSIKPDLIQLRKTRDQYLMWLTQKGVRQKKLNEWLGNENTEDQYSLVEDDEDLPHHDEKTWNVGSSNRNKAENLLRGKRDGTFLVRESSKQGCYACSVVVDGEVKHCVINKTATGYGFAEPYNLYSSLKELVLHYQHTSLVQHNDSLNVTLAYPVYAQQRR

IC50 | SMILES
10 to 100 µM | O=C1NC(c2cc(F)ccc2Cl)c2c(NC(=O)C3(O)CCCC(C(F)(F)F)C3)cccc21 (mixture of isomers) [Compound I-2088]
0.1 to 0.5 µM | CS(C)(=O)=Nc1cc(NC(=O)c2cc(F)cc(C(F)(F)F)c2)c2c(c1)C(=O)NC2c1cc(F)ccc1Cl (stereo not drawn) [Compound I-1254]
1 to 10 µM | O=C1NC(c2cc(F)ccc2Cl)c2c(Nc3cccc(=O)[nH]3)cc(Br)cc21 (stereo not drawn) [Compound I-1974]
10 to 100 µM | O=C(Nc1cccc2c1[C@@H](C1CCC[C@H](O)C1)NC2=O)c1cc(F)cc(C(F)(F)F)c1 (single isomer, unassigned) [Compound I-2225]
0.1 to 0.5 µM | O=C(Nc1cc(Br)cc2c1C(c1cc(F)ccc1Cl)NC2=O)c1cc(O)cc(Cl)c1 (stereo not drawn) [Compound I-1282]
10 to 100 µM | O=C1NC(c2cc(F)ccc2Cl)c2c1cc(-c1ccc3ncnn3c1)cc2C1=CCNCC1 (stereo not drawn) [Compound I-1997]
1 to 10 µM | Cc1ccccc1C1NC(=O)c2c(N3CCOCC3)ncc(NC(=O)c3cc(F)cc(C(F)(F)F)c3)c21 (stereo not drawn) [Compound I-253]

More lines, now with the values behind:

SMILES | IC50
C[S@](=O)(Cc1cc(NC(=O)c2cc(F)cc(C(F)(F)F)c2)c2c(c1)C(=O)N[C@@H]2c1cc(F)ccc1Cl)=NC#N (single isomer, unassigned) [Compound I-1563] | ≤ 0.1 µM
Cc1ccccc1C1NC(=O)c2cc(C(C)C)cc(NC(=O)c3cc(F)cc(C(F)(F)F)c3)c21 (stereo not drawn) [Compound I-266, 3-Fluoro-N-[3-(2-methylphenyl)-6-(isopropyl)-1-oxo-2,3-dihydro-1H-isoindol-4-yl]-5-(trifluoromethyl)benzamide] | 0.1 to 0.5 µM
N#Cc1cc2ncnn2cc1-c1cc(NC(=O)c2cc(F)cc(C(F)(F)F)c2)c2c(c1)C(=O)N[C@@H]2c1cc(F)ccc1Cl [Compound I-1645] | 1 to 10 µM
CC(=O)N1CCCCC1C(=O)Nc1cc(-c2ccc3ncnn3c2)cc2c1C(c1cc(F)ccc1Cl)NC2=O (mixture of isomers) [Compound I-1804] | 10 to 100 µM
O=C(Nc1cc(NC2=NC[C@H](C(F)(F)F)O2)cc2c1[C@@H](c1cc(F)ccc1Cl)NC2=O)c1cc(F)cc(C(F)(F)F)c1 (single isomer, unassigned) [Compound I-2325] | 1 to 10 µM
Cc1ccccc1S(=O)(=O)Cc1cc(NC(=O)c2cc(F)cc(C(F)(F)F)c2)c2c(c1)C(=O)NC2c1cc(F)ccc1Cl (stereo not drawn) [Compound I-1433] | ≤ 0.1 µM
Cc1ccccc1C1NC(=O)c2c(C#N)ncc(NC(=O)c3cc(F)cc(C(F)(F)F)c3)c21 (stereo not drawn) [Compound I-236] | 1 to 10 µM
O=C(Nc1cc(-c2cnn(C(F)F)c2)cc2c1C(c1cc(F)ccc1Cl)NC2=O)c1cc(F)cc(Cl)c1 (stereo not drawn) [Compound I-1863] | ≤ 0.1 µM
O=C(Nc1cc(Br)cc2c1C(c1cc(F)ccc1Cl)NC2=O)c1ccc(OC(F)(F)F)cc1 (stereo not drawn) [Compound I-524] | 1 to 10 µM
O=C1NC(c2cc(F)ccc2Cl)c2c(NC(=O)C34CC(CO)(C3)C4)cccc21 (stereo not drawn) [Compound I-2219] | 10 to 100 µM
N#CC[C@@H](O)c1cc(NC(=O)c2cc(F)cc(C(F)(F)F)c2)c2c(c1)C(=O)N[C@@H]2c1cc(F)ccc1Cl (single isomer, unassigned) [Compound I-1391] | 1 to 10 µM
CC(O)(CO)c1cc(NC(=O)c2cc(F)cc(C(F)(F)F)c2)c2c(c1)C(=O)NC2c1cc(F)ccc1Cl (stereo not drawn) [Compound I-382] | 0.1 to 0.5 µM
CC(=O)Nc1cccc2c1C(c1cc(F)ccc1Cl)NC2=O (stereo not drawn) [Compound I-1581] | 10 to 100 µM
O=C1NC(c2cc(F)ccc2Cl)c2c(Nc3ccc4ccccc4c3)cc(Br)cc21 (stereo not drawn) [Compound I-1725] | 1 to 10 µM
O=C(Nc1cc(N2CCOc3ccccc32)cc2c1C(c1cc(F)ccc1Cl)NC2=O)c1cc(F)cc(C(F)(F)F)c1 (stereo not drawn) [Compound I-1189] | ≤ 0.1 µM
O=C1N[C@@H](c2cc(F)ccc2Cl)c2c(NC(=O)N3C[C@](O)(C(F)(F)F)c4cc(F)ccc43)cc(N3CCCC3=O)cc21 (single isomer, unassigned) [Compound I-2668] | 10 to 100 µM
O=C1N[C@H](c2cc(F)ccc2Cl)c2c(NC(=O)[C@H]3C[C@H](O)C[C@@H](C(F)(F)F)C3)cc(Br)cc21 (single isomer, unassigned) [Compound I-2150] | 1 to 10 µM
